# Numbers after ± are expanded uncertainties.
# Details: Crystal; DTA
row,SMILES,Normal melting temperature
1,[Cl-].[Li+] [lithium chloride],605 ± 1 °C
2,[Cl-].[K+] [potassium chloride],772 ± 1 °C
3,[Cl][Pr]([Cl])[Cl] [praseodymium(III) chloride],778 ± 1 °C

# Reference: the NIST ThermoML archive (doi:10.1016/j.tca.2017.03.024)
